Data from patent US7091238B1, “Thienylhydrazon with digitalis-like properties (positive inotropic effects)” (University of Maryland, priority 1999, dated 2006).

Legend:
[1] = system: neuromuscular transmission; assay: Contractions of gastrocnemius muscle induced by stimulation of the sciatic nerve; assay type: in vivo; conditions: rat gastrocnemius
Protocol: FIG. 30. Records of contractions induced by stimulation of the sciatic nerve of equilibrated rat gastrocnemius muscles and of arterial pressure. In control, contractions were induced by intravenous injection of DMSO ([…]). LASSBio-294 was administered in DMSO. Calibration: Horizontal, 1 cm=24 s; Vertical 2 g=100 mm Hg.
FIG. 31. Records of contractions of rat gastrocnemius muscles induced by stimulation of the sciatic nerve and of arterial pressure. For control, contraction was induced by intravenous injection of […] (0.04 ml). LASSBio-294 was administered in DMSO.

[2] = system: rat thoracic aorta; conditions: reported by Delpy and Gouville (1996); cited from earlier work

Structure (SMILES) | depression of muscle contraction (test of functionality of the model) [1] | relaxant effect after removal of endothelium [2]
C=CC[N@@+]12CC[C@@]34c5ccccc5N5/C=C6/[C@H]7C[C@H]8[C@@]9(CC[N@@+]8(CC=C)C/C7=C/CO)c7ccccc7N(/C=C(/[C@@H](C[C@@H]31)/C(=C\CO)C2)[C@H]54)[C@@H]69.[Cl-].[Cl-] [alloferine, reference compound] | depression of muscle contraction | 
CCCOc1ccc(NS(C)(=O)=O)cc1-c1nc2c(c(C)nn2C)c(=O)[nH]1 [DMPPO] |  | lost its effect
